Test results: US11672786B2, “Methods of treating diseases associated with repeat instability” (The Hospital for Sick Children, priority 2016, dated 2023)

Experiments:
[1] = system: (CAG)10 hairpins; conditions: cited from earlier work
[2] = system: long (CTG)20 slip-outs from (CAG)30●(CTG)50; assay: band-shift NA-DNA binding, long (CTG)20 slip-out; set-up: species or system human; conditions: NA 0.15-50 μM, 4% polyacrylamide gel
Excerpt: FIG. 2 are the results of experiments showing that NA binds to long CAG slip-outs. […] The (CAG)n DNA sequence (left) can fold into an hairpin structure involving mismatched A-A pair flanking C-G base pairs (middle). NA molecules can intercalate into the DNA helix, with the 2-amino-1,8-naphthyridine moiety (in red) hydrogen bonding to guanine and 8-azaquinolone moiety (in blue) hydrogen bonding to adenine. […] Long slip-outs extruded as a single slip-out from a fully base-paired backbone of (CTG)n●(CAG)n, as described (Pearson et al., 2002, Nuc. Acids Res., 30:4534-47). DNAs were mixed with increasing concentrations of NA (0.15 μM, 0.75 μM, 7.5 μM and 50 μM) and resolved on 4% polyacrylamide gels. All lanes are from the same gel, and they were separated for clarity. NA-DNA complexes are shown by brackets, free DNA is indicated by arrowheads. […] The relative migration was measured for the linear and the three slip-outs substrates as the ratio of the migration distance of each NA-DNA complex to the migration distance of the free DNA. The migration distance was measured from the well to a consistent center point of each band. […]

[3] = system: transgene transcript in the CAG-direction, HT1080-(CAG)850 cells; assay: transgene mRNA quantification by quantitative RT-PCR; format: cell-based, human; conditions: NA 50 μM, 72 hr
Excerpt: FIG. 5 are results from experiments showing that NA induces CAG contractions in HT1080-(CAG)850 cells, independent of proliferation, dependent upon rCAG transcription. […] Panel B of FIG. 5 are histograms showing repeat length distributions in HT1080-(CAG)850 cells. Frequency distribution of unstable alleles is shown by gray bars. Frequency of stable alleles is shown by black bars. To facilitate comparisons, a dashed line indicates the unchanged CAG size. Allele lengths are grouped in bins spanning 50 repeats. […] More than 50 alleles were sized for each group. P-value was calculated by chi-square test (Table 2). […] P-value was calculated by Student's t-test. […] Quantitative reverse transcription (RT)-PCR was performed using TaqMan Gene Expression assays. […]
RNA was harvested from the HT1080-(CAG)850 cells at 72 hr after adding or not adding NA using the RNeasy Plus Micro Kit (Qiagen). Total RNA was primed with random hexamers and reverse transcribed with Superscript III (Life Technologies, Carlsbad, Calif.), followed by treatment with RNase H. Quantitative reverse transcription (RT)-PCR was performed using TaqMan Gene Expression assays or PrimeTime qPCR assays on an ABI PRISM 7900HT Sequence Detection System (Life Technologies) and the primer sequences shown in Table 1. […] The results were statistically analyzed using paired t-tests. […]

naphthyridine-azaquinolone
melting temperature of (CAG)10 hairpins with NA ([1]; 50 μM NA, 47.1 (±0.7)° C. without NA): 78.8 (±0.1) ° C.
increase of the melting temperature of (CAG)10 hairpins [1]: > 30 °C
NA binding (band-shift) [2]: not bound
effect on RNA transcript levels of transgene [3]: did not affect transcription of the CAG-repeats containing transcript
